Reference: patent publication US9340590B2 (priority 2011, dated 2016)
Positions of bridges follow the written chain, without caps; N, C: chain ends. Residues, ends and D or L forms follow the SMILES beside them.

Columns and labels:
Test in all cases: cell-based
hNav1.7 = hNav1.7 (Homo sapiens, UniProt Q15858); assay type: cell-based; conditions: IonWorks Quattro, use-dependent block, hNav1.7; read-out: IWQ Use Nav1.7
hNav1.3 = hNav1.3 (Homo sapiens, UniProt Q9NY46); conditions: IonWorks Quattro, use-dependent block, hNav1.3; read-out: IWQ Use Nav1.3
hNav1.5 = hNav1.5 (Homo sapiens, UniProt Q14524); conditions: IonWorks Quattro, use-dependent block, hNav1.5; read-out: IWQ Use Nav1.5
Chain of hNav1.5 (Q14524 whole entry, looked up): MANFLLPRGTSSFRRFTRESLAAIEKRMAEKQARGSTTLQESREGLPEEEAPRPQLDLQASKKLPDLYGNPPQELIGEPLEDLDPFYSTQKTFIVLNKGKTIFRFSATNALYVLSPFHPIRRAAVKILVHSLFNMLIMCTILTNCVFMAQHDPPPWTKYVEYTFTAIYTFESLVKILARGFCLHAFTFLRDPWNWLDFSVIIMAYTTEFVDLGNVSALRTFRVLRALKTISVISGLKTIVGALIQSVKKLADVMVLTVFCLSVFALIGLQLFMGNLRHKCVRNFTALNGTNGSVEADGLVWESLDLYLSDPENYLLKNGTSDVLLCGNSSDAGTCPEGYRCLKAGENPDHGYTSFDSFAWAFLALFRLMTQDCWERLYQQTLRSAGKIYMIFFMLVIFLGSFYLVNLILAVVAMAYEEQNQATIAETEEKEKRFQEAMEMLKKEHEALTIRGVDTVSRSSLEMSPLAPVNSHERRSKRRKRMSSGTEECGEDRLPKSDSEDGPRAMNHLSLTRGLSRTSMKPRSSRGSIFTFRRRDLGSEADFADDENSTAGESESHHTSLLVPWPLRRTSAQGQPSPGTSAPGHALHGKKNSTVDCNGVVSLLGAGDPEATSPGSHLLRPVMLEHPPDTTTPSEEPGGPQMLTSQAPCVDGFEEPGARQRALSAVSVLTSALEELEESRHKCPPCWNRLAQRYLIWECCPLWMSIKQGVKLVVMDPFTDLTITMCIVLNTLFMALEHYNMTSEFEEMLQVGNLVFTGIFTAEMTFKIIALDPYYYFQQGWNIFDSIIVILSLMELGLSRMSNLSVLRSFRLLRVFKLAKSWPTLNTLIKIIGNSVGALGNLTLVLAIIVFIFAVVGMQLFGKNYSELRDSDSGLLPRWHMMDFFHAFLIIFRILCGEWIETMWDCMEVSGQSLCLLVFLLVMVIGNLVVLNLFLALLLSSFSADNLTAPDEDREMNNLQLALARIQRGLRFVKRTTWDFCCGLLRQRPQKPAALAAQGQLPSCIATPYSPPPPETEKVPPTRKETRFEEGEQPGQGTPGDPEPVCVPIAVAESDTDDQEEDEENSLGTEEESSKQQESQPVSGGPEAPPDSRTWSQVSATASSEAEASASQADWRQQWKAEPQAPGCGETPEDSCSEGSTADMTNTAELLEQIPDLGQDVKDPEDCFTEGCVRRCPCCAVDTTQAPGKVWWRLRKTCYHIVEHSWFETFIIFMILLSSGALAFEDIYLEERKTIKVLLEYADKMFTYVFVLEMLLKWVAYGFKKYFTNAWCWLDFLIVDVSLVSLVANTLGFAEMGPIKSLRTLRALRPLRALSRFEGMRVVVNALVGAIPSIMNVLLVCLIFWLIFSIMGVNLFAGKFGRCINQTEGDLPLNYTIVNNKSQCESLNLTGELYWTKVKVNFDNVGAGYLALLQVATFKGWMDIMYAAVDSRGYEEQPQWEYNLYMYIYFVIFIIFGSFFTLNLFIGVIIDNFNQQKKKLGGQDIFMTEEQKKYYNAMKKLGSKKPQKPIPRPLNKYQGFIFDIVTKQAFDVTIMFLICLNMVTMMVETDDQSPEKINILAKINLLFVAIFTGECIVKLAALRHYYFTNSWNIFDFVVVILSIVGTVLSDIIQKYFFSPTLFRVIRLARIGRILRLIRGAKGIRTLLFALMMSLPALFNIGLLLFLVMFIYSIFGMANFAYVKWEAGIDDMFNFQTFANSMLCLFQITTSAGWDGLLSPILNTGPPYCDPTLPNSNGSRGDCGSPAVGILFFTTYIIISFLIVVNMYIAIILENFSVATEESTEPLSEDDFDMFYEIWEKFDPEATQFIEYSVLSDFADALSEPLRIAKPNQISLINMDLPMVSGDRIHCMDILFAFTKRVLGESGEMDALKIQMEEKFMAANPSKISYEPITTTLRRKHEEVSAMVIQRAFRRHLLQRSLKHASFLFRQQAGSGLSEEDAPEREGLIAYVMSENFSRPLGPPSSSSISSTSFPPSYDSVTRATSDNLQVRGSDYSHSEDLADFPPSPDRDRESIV

Chain of hNav1.7 (Q15858 whole entry, looked up): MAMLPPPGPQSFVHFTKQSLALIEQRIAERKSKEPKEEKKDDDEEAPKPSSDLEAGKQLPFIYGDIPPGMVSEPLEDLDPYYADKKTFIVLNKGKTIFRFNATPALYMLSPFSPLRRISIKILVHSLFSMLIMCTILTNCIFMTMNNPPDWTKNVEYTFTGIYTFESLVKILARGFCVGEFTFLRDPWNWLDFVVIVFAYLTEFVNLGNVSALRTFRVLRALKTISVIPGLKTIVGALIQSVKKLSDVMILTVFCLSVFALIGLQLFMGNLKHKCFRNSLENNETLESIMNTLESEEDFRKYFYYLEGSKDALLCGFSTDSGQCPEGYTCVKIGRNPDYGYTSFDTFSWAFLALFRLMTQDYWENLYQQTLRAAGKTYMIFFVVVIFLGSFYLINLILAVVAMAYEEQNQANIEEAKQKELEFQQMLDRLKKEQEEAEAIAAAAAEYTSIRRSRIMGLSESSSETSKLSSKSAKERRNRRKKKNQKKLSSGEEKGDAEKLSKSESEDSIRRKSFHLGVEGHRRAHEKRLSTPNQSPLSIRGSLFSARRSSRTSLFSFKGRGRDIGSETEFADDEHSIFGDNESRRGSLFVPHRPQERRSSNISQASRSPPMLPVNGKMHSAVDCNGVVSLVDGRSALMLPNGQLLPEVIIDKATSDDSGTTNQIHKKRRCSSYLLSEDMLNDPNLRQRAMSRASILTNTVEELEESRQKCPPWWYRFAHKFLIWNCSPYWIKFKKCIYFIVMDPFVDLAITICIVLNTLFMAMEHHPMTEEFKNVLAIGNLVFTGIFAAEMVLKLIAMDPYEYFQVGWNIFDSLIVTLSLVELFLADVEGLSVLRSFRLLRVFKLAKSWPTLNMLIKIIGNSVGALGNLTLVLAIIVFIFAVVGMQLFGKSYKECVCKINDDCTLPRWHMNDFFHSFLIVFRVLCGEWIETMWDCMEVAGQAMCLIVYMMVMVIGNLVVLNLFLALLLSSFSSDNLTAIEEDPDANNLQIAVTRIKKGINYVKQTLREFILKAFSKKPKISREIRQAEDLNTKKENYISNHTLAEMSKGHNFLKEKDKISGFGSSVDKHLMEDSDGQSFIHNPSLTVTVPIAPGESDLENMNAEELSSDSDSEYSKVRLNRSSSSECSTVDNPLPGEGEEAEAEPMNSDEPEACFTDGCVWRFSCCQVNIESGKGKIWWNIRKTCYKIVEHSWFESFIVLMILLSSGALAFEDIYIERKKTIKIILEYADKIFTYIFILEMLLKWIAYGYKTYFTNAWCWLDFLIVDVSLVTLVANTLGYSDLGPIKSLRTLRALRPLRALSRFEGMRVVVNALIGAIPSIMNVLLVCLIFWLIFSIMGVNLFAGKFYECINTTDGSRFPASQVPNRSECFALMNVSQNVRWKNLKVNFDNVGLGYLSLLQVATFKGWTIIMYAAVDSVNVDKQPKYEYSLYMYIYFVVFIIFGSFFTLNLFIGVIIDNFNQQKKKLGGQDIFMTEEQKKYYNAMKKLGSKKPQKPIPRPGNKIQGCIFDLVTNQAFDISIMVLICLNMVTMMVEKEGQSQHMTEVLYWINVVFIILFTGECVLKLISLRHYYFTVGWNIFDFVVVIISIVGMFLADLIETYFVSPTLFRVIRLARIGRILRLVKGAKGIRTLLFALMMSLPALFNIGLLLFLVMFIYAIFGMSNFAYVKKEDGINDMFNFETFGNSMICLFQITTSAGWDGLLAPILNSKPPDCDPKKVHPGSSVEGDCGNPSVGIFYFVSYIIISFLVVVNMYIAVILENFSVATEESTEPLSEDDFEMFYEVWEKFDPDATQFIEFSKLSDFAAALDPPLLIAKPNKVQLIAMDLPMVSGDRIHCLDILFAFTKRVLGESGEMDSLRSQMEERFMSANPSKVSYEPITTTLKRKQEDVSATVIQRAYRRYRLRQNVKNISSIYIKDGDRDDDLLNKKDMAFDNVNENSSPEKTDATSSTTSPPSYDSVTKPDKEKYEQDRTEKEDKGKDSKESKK

Structure (SMILES) | IC50 (hNav1.7) [nM] | IC50 (hNav1.3) [nM] | IC50 (hNav1.5) [nM]
CCCC[C@@H]1NC(=O)[C@H](C)NC(=O)CNC(=O)[C@H](CC(C)C)NC(=O)[C@@H](NC(=O)[C@@H](N)CC(=O)O)CSSC[C@@H]2NC(=O)[C@@H]3CSSC[C@@H](C(=O)N[C@@H](CCCCN)C(=O)N[C@@H](Cc4ccc(O)cc4)C(=O)N[C@H](C(=O)N[C@@H](Cc4ccccc4)C(N)=O)C(C)C)NC(=O)[C@H](Cc4c[nH]c5ccccc45)NC(=O)[C@H](CCCCN)NC(=O)[C@H](Cc4cnc[nH]4)NC(=O)[C@H]([C@@H](C)O)NC(=O)[C@H](CCCNC(=N)N)NC(=O)[C@H](CO)NC(=O)[C@H](CSSC[C@H](NC(=O)[C@H](CCCCN)NC(=O)[C@H](CCCNC(=N)N)NC1=O)C(=O)N[C@@H]([C@@H](C)CC)C(=O)N1CCC[C@H]1C(=O)N[C@@H](CC(=O)O)C(=O)N[C@@H](CC(N)=O)C(=O)N[C@@H](CC(=O)O)C(=O)N[C@@H](CCCCN)C(=O)N3)NC(=O)[C@H](C(C)C)NC(=O)[C@H](CC(C)C)NC(=O)[C@H](CC(N)=O)NC(=O)[C@@H]1CCCN1C(=O)[C@H](CCCNC(=N)N)NC2=O [compound 721] | 150 | 410 | 45000
CC(C)C[C@@H]1NC(=O)[C@H](C)NC(=O)CNC(=O)[C@H](CC(C)C)NC(=O)[C@@H](NC(=O)[C@@H](N)CC(=O)O)CSSC[C@@H]2NC(=O)[C@@H]3CSSC[C@@H](C(=O)N[C@@H](CCCCN)C(=O)N[C@@H](Cc4ccc(O)cc4)C(=O)N[C@H](C(=O)N[C@@H](Cc4ccccc4)C(N)=O)C(C)C)NC(=O)[C@H](Cc4c[nH]c5ccccc45)NC(=O)[C@H](CCCCN)NC(=O)[C@H](Cc4c[nH]cn4)NC(=O)[C@H]([C@@H](C)O)NC(=O)[C@H](CCCNC(=N)N)NC(=O)[C@H](CO)NC(=O)[C@H](CSSC[C@H](NC(=O)[C@H](CCCCN)NC(=O)[C@H](CCCNC(=N)N)NC1=O)C(=O)N[C@@H](CCC(=O)O)C(=O)N1CCC[C@H]1C(=O)N[C@@H](CC(=O)O)C(=O)N[C@@H](CC(N)=O)C(=O)N[C@@H](CC(=O)O)C(=O)N[C@@H](CCCCN)C(=O)N3)NC(=O)[C@H](C(C)C)NC(=O)[C@H](CC(C)C)NC(=O)[C@H](CC(N)=O)NC(=O)[C@@H]1CCCN1C(=O)[C@H](CCCNC(=N)N)NC2=O [compound 723] | 380 | 1200 | > 50000
CC(C)C[C@@H]1NC(=O)[C@@H](NC(=O)[C@@H](N)CC(=O)O)CSSC[C@@H]2NC(=O)[C@@H]3CSSC[C@@H](C(=O)N[C@@H](CCCCN)C(=O)N[C@@H](Cc4ccc(O)cc4)C(=O)N[C@H](C(=O)N[C@@H](Cc4ccccc4)C(N)=O)C(C)C)NC(=O)[C@H](Cc4c[nH]c5ccccc45)NC(=O)[C@H](CCCCN)NC(=O)[C@H](Cc4c[nH]cn4)NC(=O)[C@H]([C@@H](C)O)NC(=O)[C@H](CCCNC(=N)N)NC(=O)[C@H](CO)NC(=O)[C@H](CSSC[C@H](NC(=O)[C@H](CCCCN)NC(=O)[C@H](CCCNC(=N)N)NC(=O)[C@H](Cc4ccccc4)NC(=O)[C@H](C)NC(=O)CNC1=O)C(=O)N[C@@H](CCC(=O)O)C(=O)N1CCC[C@H]1C(=O)N[C@@H](CC(=O)O)C(=O)N[C@@H](CC(N)=O)C(=O)N[C@@H](CC(=O)O)C(=O)N[C@@H](CCCCN)C(=O)N3)NC(=O)[C@H](C(C)C)NC(=O)[C@H](CC(C)C)NC(=O)[C@H](CC(N)=O)NC(=O)[C@@H]1CCCN1C(=O)[C@H](CCCNC(=N)N)NC2=O [compound 724] (H-DCLGAFRKCEPDNDKCCRPNLVCSRTHKWCKYVF-NH2; disulfide 2-17, 9-23, 16-30) | 380 | 320 | 36000
CC[C@H](C)[C@@H]1NC(=O)[C@@H]2CSSC[C@@H]3NC(=O)[C@H](C(C)C)NC(=O)[C@H](CC(C)C)NC(=O)[C@H](CC(N)=O)NC(=O)[C@@H]4CCCN4C(=O)[C@H](CCCNC(=N)N)NC(=O)[C@H](CSSC[C@H](NC(=O)[C@@H](N)CC(=O)O)C(=O)N[C@@H](CC(C)C)C(=O)NCC(=O)N[C@@H](C)C(=O)N[C@@H](CC(C)C)C(=O)N[C@@H](CCCNC(=N)N)C(=O)N[C@@H](CCCCN)C(=O)N2)NC(=O)[C@H](CSSC[C@@H](C(=O)N[C@@H](CCCCN)C(=O)N[C@@H](Cc2ccc(O)cc2)C(=O)N[C@H](C(=O)N[C@@H](Cc2ccccc2)C(N)=O)C(C)C)NC(=O)[C@H](Cc2c[nH]c4ccccc24)NC(=O)[C@H](CCCCN)NC(=O)[C@H](Cc2c[nH]cn2)NC(=O)[C@H]([C@@H](C)O)NC(=O)[C@H](CCCNC(=N)N)NC(=O)[C@H](CO)NC3=O)NC(=O)[C@H](CCCCN)NC(=O)[C@H](CC(=O)O)NC(=O)[C@H](CC(N)=O)NC(=O)[C@H](CCC(=O)O)NC(=O)[C@@H]2CCCN2C1=O [compound 726] | 350 | 580 | > 50000
CC[C@H](C)[C@@H]1NC(=O)[C@@H]2CSSC[C@@H]3NC(=O)[C@H](C(C)C)NC(=O)[C@H](CC(C)C)NC(=O)[C@H](CC(N)=O)NC(=O)[C@@H]4CCCN4C(=O)[C@H](CCCNC(=N)N)NC(=O)[C@H](CSSC[C@H](NC(=O)[C@@H](N)CC(=O)O)C(=O)N[C@@H](CC(C)C)C(=O)NCC(=O)N[C@@H](C)C(=O)N[C@@H](CC(C)C)C(=O)N[C@@H](CCCNC(=N)N)C(=O)N[C@@H](CCCCN)C(=O)N2)NC(=O)[C@H](CSSC[C@@H](C(=O)N[C@@H](CCCCN)C(=O)N[C@@H](Cc2ccc(O)cc2)C(=O)N[C@H](C(=O)N[C@@H](Cc2ccccc2)C(N)=O)C(C)C)NC(=O)[C@H](Cc2c[nH]c4ccccc24)NC(=O)[C@H](CCC(=O)O)NC(=O)[C@H](Cc2c[nH]cn2)NC(=O)[C@H]([C@@H](C)O)NC(=O)[C@H](CCCNC(=N)N)NC(=O)[C@H](CO)NC3=O)NC(=O)[C@H](CCCCN)NC(=O)[C@H](CC(=O)O)NC(=O)[C@H](CC(N)=O)NC(=O)[C@H](CC(=O)O)NC(=O)[C@@H]2CCCN2C1=O [compound 728] | 1600 | 6600 | 43000
CC[C@H](C)[C@@H]1NC(=O)[C@@H]2CSSC[C@@H]3NC(=O)[C@H](C(C)C)NC(=O)[C@H](CC(C)C)NC(=O)[C@H](CC(N)=O)NC(=O)[C@@H]4CCCN4C(=O)[C@H](CCCNC(=N)N)NC(=O)[C@H](CSSC[C@H](NC(=O)[C@@H](N)CC(=O)O)C(=O)N[C@@H](CC(C)C)C(=O)NCC(=O)N[C@@H](C)C(=O)N[C@@H](Cc4ccccc4)C(=O)N[C@@H](CCCNC(=N)N)C(=O)N[C@@H](CCCCN)C(=O)N2)NC(=O)[C@H](CSSC[C@@H](C(=O)N[C@@H](CCCCN)C(=O)N[C@@H](Cc2ccc(O)cc2)C(=O)N[C@H](C(=O)N[C@@H](Cc2ccccc2)C(N)=O)C(C)C)NC(=O)[C@H](Cc2c[nH]c4ccccc24)NC(=O)[C@H](CCC(=O)O)NC(=O)[C@H](Cc2c[nH]cn2)NC(=O)[C@H]([C@@H](C)O)NC(=O)[C@H](CCCNC(=N)N)NC(=O)[C@H](CO)NC3=O)NC(=O)[C@H](CCCCN)NC(=O)[C@H](CC(=O)O)NC(=O)[C@H](CC(N)=O)NC(=O)[C@H](CC(=O)O)NC(=O)[C@@H]2CCCN2C1=O [compound 729] (H-DCLGAFRKCIPDNDKCCRPNLVCSRTHEWCKYVF-NH2; disulfide 2-17, 9-23, 16-30) | 1100 | 1800 | 48000
CC[C@H](C)[C@@H]1NC(=O)[C@@H]2CSSC[C@@H]3NC(=O)[C@H](C(C)C)NC(=O)[C@H](CC(C)C)NC(=O)[C@H](CC(N)=O)NC(=O)[C@@H]4CCCN4C(=O)[C@H](CCCNC(=N)N)NC(=O)[C@H](CSSC[C@H](NC(=O)[C@@H](N)CC(=O)O)C(=O)N[C@@H](CC(C)C)C(=O)NCC(=O)N[C@@H](C)C(=O)N[C@@H](CC(C)C)C(=O)N[C@@H](CCCNC(=N)N)C(=O)N[C@@H](CCCCN)C(=O)N2)NC(=O)[C@H](CSSC[C@@H](C(=O)N[C@@H](CCCCN)C(=O)N[C@@H](Cc2ccc(O)cc2)C(=O)N[C@H](C(=O)N[C@@H](Cc2ccccc2)C(N)=O)C(C)C)NC(=O)[C@H](Cc2c[nH]c4ccccc24)NC(=O)[C@H](CCCCN)NC(=O)[C@H](Cc2c[nH]cn2)NC(=O)[C@H]([C@@H](C)O)NC(=O)[C@H](C)NC(=O)[C@H](CO)NC3=O)NC(=O)[C@H](CCCCN)NC(=O)[C@H](CC(=O)O)NC(=O)[C@H](CC(N)=O)NC(=O)[C@H](CC(=O)O)NC(=O)[C@@H]2CCCN2C1=O [compound 731] | 600 | 2800 | 38000
CC[C@H](C)[C@@H]1NC(=O)[C@@H]2CSSC[C@@H]3NC(=O)[C@H](C(C)C)NC(=O)[C@H](CC(C)C)NC(=O)[C@H](CC(N)=O)NC(=O)[C@@H]4CCCN4C(=O)[C@H](CCCNC(=N)N)NC(=O)[C@H](CSSC[C@H](NC(=O)[C@@H](N)CC(=O)O)C(=O)N[C@@H](CC(C)C)C(=O)NCC(=O)N[C@@H](C)C(=O)N[C@@H](Cc4ccccc4)C(=O)N[C@@H](CCCNC(=N)N)C(=O)N[C@@H](CCCCN)C(=O)N2)NC(=O)[C@H](CSSC[C@@H](C(=O)N[C@@H](CCCCN)C(=O)N[C@@H](Cc2ccc(O)cc2)C(=O)N[C@H](C(=O)N[C@@H](Cc2ccccc2)C(N)=O)C(C)C)NC(=O)[C@H](Cc2c[nH]c4ccccc24)NC(=O)[C@H](CCCCN)NC(=O)[C@H](Cc2c[nH]cn2)NC(=O)[C@H]([C@@H](C)O)NC(=O)[C@H](C)NC(=O)[C@H](CO)NC3=O)NC(=O)[C@H](CCCCN)NC(=O)[C@H](CC(=O)O)NC(=O)[C@H](CC(N)=O)NC(=O)[C@H](CC(=O)O)NC(=O)[C@@H]2CCCN2C1=O [compound 732] (H-DCLGAFRKCIPDNDKCCRPNLVCSATHKWCKYVF-NH2; disulfide 2-17, 9-23, 16-30) | 290 | 600 | > 50000
